From patent US10836921B2, “Ink, ink cartridge, and ink jet recording method” (CANON KABUSHIKI KAISHA, priority 2016, dated 2020)
Read-outs that look alike come from different tables or passages of the source.

Tests used:
[1] = Partition coefficient (n-octanol / water), common logarithm; settings: for LogPA: poorly water-soluble alcohol (solvent A); for LogPB: highly water-soluble solvent (solvent B); for Log partition coefficient: solvents used in Comparative Examples
[2] = Vapor pressure at 20° C.; type: physicochemical
Description: (§1) The alcohol used as the poorly water-soluble solvent has a vapor pressure at 20° C. of 0.5 mmHg or less and a surface tension of 30.0 mN/m or more as described above. When a poorly water-soluble alcohol having a vapor pressure at 20° C. of more than 0.5 mmHg forms a film on an ejection opening of a recording head, the film evaporates unfortunately, and the effect of suppressing water evaporation is reduced. In consideration of this point, the poorly water-soluble alcohol preferably has a vapor pressure at 20° C. of 0.2 mmHg or less and more preferably 0.1 mmHg or less. Meanwhile, a poorly water-soluble alcohol having a surface tension of less than 30.0 mN/m has a weak intermolecular force, and thus the poorly water-soluble alcohol cannot form a film even when separated from an ink. In consideration of this point, the poorly water-soluble alcohol preferably has a surface tension of 36.0 mN/m or more. The poorly water-soluble alcohol preferably has a surface tension of 50 mN/m or less.

[3] = Surface tension; type: physicochemical
Description: The present invention will now be more specifically described with reference to preferred embodiments, but the invention is not intended to be limited to the following embodiments. In the present specification, an aqueous ink for ink jet may be simply called “ink”. Physical property values are values determined at normal temperature (25° C.) unless otherwise noted.
as §1

[4] = Solubility in water at 20° C. (saturated solubility); type: physicochemical
Description: As the poorly water-soluble solvent, at least an alcohol having a vapor pressure at 20° C. of 0.5 mmHg or less and a surface tension of 30.0 mN/m or more (hereinafter also called “poorly water-soluble alcohol”) is used.

[5] = solvents used in Comparative Examples

Row | Structure (SMILES) | LogPA [1] | Vapor pressure [2] [mmHg] | Surface tension [3] [mN/m] | Solubility [4] [g/100 g-H2O] | LogPB [1] | other results
1 | CC(O)COc1ccccc1 (centres unmarked) [1-Phenoxy-2-propanol] | 1.51 | 0.0 | 37.7 | 1.10 |  | 
2 | CC(O)Cc1ccccc1 (centres unmarked) [1-Phenyl-2-propanol] | 1.71 | 0.1 | 37.3 | 0.58 |  | 
3 | OCCOc1ccccc1 [2-Phenoxyethanol] | 1.16 | 0.0 | 40.0 | 2.67 |  | 
4 | O=C1CCCN1 [2-Pyrrolidone] |  |  |  |  | −1.01 | 
5 | OCCCc1ccccc1 [3-Phenyl-1-propanol] | 1.88 | 0.0 | 38.9 | 0.57 |  | 
6 | OCCCCc1ccccc1 [4-Phenyl-1-butanol] | 2.40 | 0.0 | 38.3 | 0.10 |  | 
7 | CC(=O)OCc1ccccc1 [Benzyl acetate] |  |  |  |  |  | Log partition coefficient [1]: 1.84; Vapor pressure [2, 5]: 0.2 mmHg; Surface tension [3, 5]: 35.9 mN/m; Solubility [4, 5]: 0.30 g/100 g-H2O
8 | OCc1ccccc1 [Benzyl alcohol] | 1.03 | 0.1 | 39.0 | 4.29 |  | 
9 | OCCO [Ethylene glycol] |  |  |  |  | −1.69 | 
10 | CCCCCO [Example 1-Pentanol, 1-Pentanol] |  |  |  |  |  | Log partition coefficient [1]: 1.41; Vapor pressure [2, 5]: 1.5 mmHg; Surface tension [3, 5]: 25.5 mN/m; Solubility [4, 5]: 2.20 g/100 g-H2O
11 | OCC(O)CO [Glycerol] |  |  |  |  | −2.32 | 
12 | C=CC(C)(O)CCC=C(C)C (centres unmarked) [Linalool] |  |  |  |  |  | Vapor pressure [2, 5]: 0.2 mmHg; Surface tension [3, 5]: 26.6 mN/m; Solubility [4, 5]: 1.50 g/100 g-H2O
13 | COCCOCCO [Methyl carbitol] |  |  |  |  | −1.16 | 
14 | OCCc1ccccc1 [Phenethyl alcohol] |  | 0.1 | 39.7 | 2.20 |  | 
15 | O=CCc1ccccc1 [Phenylacetaldehyde] |  |  |  |  |  | Vapor pressure [2, 5]: 0.4 mmHg; Surface tension [3, 5]: 35.9 mN/m
16 | CC(O)CO (centres unmarked) [Propylene glycol] |  |  |  |  | −1.34 | 
17 | OCCOCCOCCO [Triethylene glycol] |  |  |  | ≥ 20 | −1.87 | 
18 | COc1ccc(C=O)cc1 [p-Anisaldehyde] |  |  |  |  |  | Vapor pressure [2, 5]: 0.0 mmHg; Surface tension [3, 5]: 37.2 mN/m; Solubility [4, 5]: 0.40 g/100 g-H2O
